Data as given in publication PMC4457651 (Biochimica et biophysica acta, 2015).

Legend:
[1] = molecular target: T1, yeast cytochrome c peroxidase (yCcP) (Saccharomyces cerevisiae, UniProt P00431); experiment: Equilibrium binding to heme of yCcP by spectrophotometric titration; parameters: species or system S. cervisiae; details: for KAapp: calculated from best-fit line
T1 sequence (P00431 68-361): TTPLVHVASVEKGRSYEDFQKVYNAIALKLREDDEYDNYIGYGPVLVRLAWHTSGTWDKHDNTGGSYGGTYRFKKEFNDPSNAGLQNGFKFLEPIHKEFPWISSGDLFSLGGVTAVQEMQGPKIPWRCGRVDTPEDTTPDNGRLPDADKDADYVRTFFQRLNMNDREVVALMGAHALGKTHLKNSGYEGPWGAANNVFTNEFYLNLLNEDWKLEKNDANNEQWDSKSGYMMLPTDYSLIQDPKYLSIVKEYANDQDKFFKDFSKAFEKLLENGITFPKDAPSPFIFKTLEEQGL

[2] = molecular target: rCcP (heme and Trp-191 cavity) (Saccharomyces cerevisiae, UniProt P00431); experiment: Kinetics of ligand binding to rCcP; parameters: species or system baker's yeast; details: for Time for initial binding phase to be complete: first kinetic phase, manual mixing
[3] = molecular target: horse metMb; details: read-out: KDapp, metMb; pH 7; cited from earlier work
[4] = molecular target: yCcP (heme and Trp-191 cavity) (Saccharomyces cerevisiae, UniProt P00431); experiment: Kinetics of ligand binding to yCcP; parameters: species or system S. cervisiae; details: for KA2: Trp-191 cavity of yCcP; for KA2 / k4: fit to Eq. 5; for k4: Trp-191 cavity of yCcP/MIM complex
[5] = molecular target: CcP(H52L) (Saccharomyces cerevisiae, UniProt P00431, H119L); experiment: Equilibrium binding to CcP; parameters: species or system baker's yeast
[6] = molecular target: recombinant cytochrome c peroxidase (rCcP) (Saccharomyces cerevisiae, UniProt P00431); experiment: Equilibrium binding to heme of rCcP by spectrophotometric titration; parameters: species or system baker's yeast
[7] = neutral pH; cited from earlier work
[8] = molecular target: Chironomus plumosus metHb; details: read-out: KD, Chironomus plumosus metHb imidazole complex; cited from earlier work
[9] = molecular target: CcP(W191G); details: read-out: Apparent KD, CcP(W191G)/imidazole complex; cited from earlier work
[10] = test system: sperm whale metMb; details: cited from earlier work
[11] = molecular target: R. capsulatus cytochrome c2(M96N); details: read-out: KD, R. capsulatus cytochrome c2(M96N) imidazole complex; cited from earlier work
[12] = molecular target: horse cytochrome c; details: read-out: KD, horse cytochrome c imidazole complex; cited from earlier work
[13] = molecular target: nitric oxide synthase; details: read-out: KD, nitric oxide synthase imidazole complex; cited from earlier work
[14] = test system: horseradish peroxidase (HRP); details: pH 9.3; cited from earlier work
[15] = ionization of free imidazole; cited from earlier work
[16] = test system: cytochrome P450CAM; details: read-out: KD, cytochrome P450CAM imidazole complex; cited from earlier work
[17] = molecular target: Rhodobacter sphaeroides cytochrome c1; details: read-out: KD, Rhodobacter sphaeroides cytochrome c1 imidazole complex; cited from earlier work
[18] = 8.76 μM rCcP, 3.15 M imidazole, pH 7.0
[19] = pH 7.0, biphasic imidazole titration

Chain of CcP(H52L) (P00431 68-361 H119L): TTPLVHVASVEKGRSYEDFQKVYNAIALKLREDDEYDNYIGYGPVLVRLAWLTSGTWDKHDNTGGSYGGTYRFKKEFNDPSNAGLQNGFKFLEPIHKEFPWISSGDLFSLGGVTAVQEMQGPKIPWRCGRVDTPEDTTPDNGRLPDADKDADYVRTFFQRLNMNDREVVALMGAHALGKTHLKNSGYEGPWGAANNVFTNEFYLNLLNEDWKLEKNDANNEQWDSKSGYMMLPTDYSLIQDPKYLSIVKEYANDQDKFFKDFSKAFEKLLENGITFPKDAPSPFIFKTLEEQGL

## Cn1ccnc1 [1-Methylimidazole, 1-methylimidazole]
[1]; Saccharomyces cerevisiae (yeast), pH 4
  Apparent pKa of ionizable group affecting MIM binding affinity: 5.2 ± 0.3
[1]; yCcP
  Increase in binding affinity on decreasing pH from 7.5 to 4.0: 4 fold
[1]; yCcP, pH 4.1
  KAapp: 4.72 M⁻¹
[1]; yCcP, pH 4.5
  KAapp: 4.37 M⁻¹
[1]; yCcP, pH 5.0
  KAapp: 3.53 M⁻¹
[1]; yCcP, pH 5.5
  KAapp: 2.48 M⁻¹
[1]; yCcP, pH 6.0
  KAapp: 1.74 M⁻¹
[1]; yCcP, pH 6.5
  KAapp: 1.40 M⁻¹
[1]; yCcP, pH 7.0
  KAapp: 1.30 M⁻¹
[1]; yCcP, pH 7.5
  KAapp: 1.24 M⁻¹
[2]
  kfobs faster than kfobs for the imidazole/CcP reaction: about 10 times
  Time for initial binding phase to be complete: ≤ 10 s
[2]; 9.07 μM rCcP, 0.992 M MIM, pH 7.0
  ksobs, observed rate constant of slow absorbance change: (1.13 ± 0.06) × 10^−4 s^−1
[2]; assuming 97% of reaction complete within 10 s mixing
  kfobs, lower limit for initial binding: ≥ 0.35 s⁻¹
[2]; listed as MIM
  Time for initial binding phase to be complete: less than 10 s
[2]; pH 7
  KA1 as fraction of KAapp: about 4%
[3]
  Kd: 87 mM
[4]
  Kd: 5 ± 2 mM
[4]; pH 4.1
  KA2: (2.94 ± 0.28) × 10^2 M^−1
  k4: (1.55 ± 0.08) × 10^−1 M^−1 s^−1
[4]; pH 4.5
  KA2: (9.19 ± 0.52) × 10^1 M^−1
  k4: (2.49 ± 0.16) × 10^−2 M^−1 s^−1
[4]; pH 5.0
  KA2: (1.74 ± 0.17) × 10^2 M^−1
  k4: (2.72 ± 0.35) × 10^−2 M^−1 s^−1
[4]; pH 5.5
  KA2: (1.73 ± 0.35) × 10^2 M^−1
  k4: (1.14 ± 0.03) × 10^−2 M^−1 s^−1
[4]; pH 6.0
  KA2: (2.64 ± 0.18) × 10^2 M^−1
  k4: (1.60 ± 0.03) × 10^−2 M^−1 s^−1
[4]; pH 6.5
  KA2: (2.13 ± 0.27) × 10^2 M^−1
  k4: (1.26 ± 0.03) × 10^−2 M^−1 s^−1
[4]; pH 7.0
  KA2: (2.13 ± 0.81) × 10^3 M^−1
  k4: (9.21 ± 3.17) × 10^−3 M^−1 s^−1
[4]; pH 7.5
  KA2: (4.52 ± 5.10) × 10^3 M^−1
  k4: (5.48 ± 1.2) × 10^0 M^−1 s^−1
[4]; binding into Trp-191 cavity of heme-ligated yCcP, average pH 4.1 to 6.5
  k4, average: (4.1 ± 0.6) × 10^−2 M^−1s^−1
[4]; binding into Trp-191 cavity, yCcP, average pH 4.1 to 6.5
  KA2, average: 200 ± 70 M⁻¹

## O=[N+]([O-])c1c[nH]cn1 [4-Nitroimidazole, 4-nitroimidazole]
[1]; ~5 mM 4NI, pH 7.0, estimate
  Fraction of yCcP bound to ligand at highest ligand concentration: about 2%
[5]
  Kd: ~30 mM
[5]; 4.80 mM 4NI, pH 7.0, estimate
  Fraction of CcP(H52L)/4NI complex formed: about 14%
[5]; estimated
  Affinity of CcP(H52L) higher than CcP: 7 fold
[3]
  Kd: 2.5 mM
[6]
  Kd: ~100 mM
[6]; ~5 mM 4NI, pH 7.0, estimate
  Fraction of rCcP bound to ligand at highest ligand concentration: ~ 5%
[7]
  Concentration of saturated solution in aqueous buffer: less than 6 mM

## c1c[nH]cn1 [Imidazole, imidazole]
[1]; imidazole up to 4.90 M, pH 7.0
  Fraction of yCcP bound to ligand at highest ligand concentration: about 60%
[1]; pH 7
  Binding to CcP weaker than binding to metmyoglobin: about 120 times
[2]; [18]
  kfobs, observed rate constant of fast phase: (2.13 ± 0.08) × 10^−2 s^−1
  ksobs, observed rate constant of slow phase: (2.91 ± 0.01) × 10^−4 s^−1
[5]
  High-affinity phase of CcP(H52L): greater affinity than yCcP: 25 fold
  Low-affinity phase of CcP(H52L) weaker than binding by yCcP: about 3 times
[5]; [19]
  Fraction of high-affinity phase, CcP(H52L): < 46%
  Fraction of low-affinity phase, CcP(H52L): > 54%
[8]
  Kd: 0.029 mM
[3]
  Kd: 28 mM
[9]
  Kd: 0.7 mM
[10]
  Rate constant of binding to sperm whale metMb: 360 M⁻¹ s⁻¹
[10]; read-out: KD, sperm whale metmyoglobin imidazole complex
  Kd: 26 mM
[11]
  Kd: 0.0018 mM
[12]
  Kd: 34 mM
[13]
  Kd: 0.063 mM
[6]; pH 7.0
  KDapp of rCcP complex larger than for yCcP complex: about 40%
[14]
  Formation of HRP/imidazole complex: Only partial formation
[15]
  pKA of free imidazole: 14.4
[16]
  Kd: 0.4 mM
[17]
  Kd: 0.033 mM

## c1c[nH]cn1 [imidazolium ion]
[10]
  Rate constant of binding to sperm whale metMb: 127 M⁻¹ s⁻¹
